Test [1] concerns the target T1, human soluble TNFR1 (sTNFR1) (Homo sapiens, UniProt P19438).
T1 construct: made in house; host or cells: Sf21 (baculovirus)
T1 sequence (P19438 with tags, fused parts or gaps): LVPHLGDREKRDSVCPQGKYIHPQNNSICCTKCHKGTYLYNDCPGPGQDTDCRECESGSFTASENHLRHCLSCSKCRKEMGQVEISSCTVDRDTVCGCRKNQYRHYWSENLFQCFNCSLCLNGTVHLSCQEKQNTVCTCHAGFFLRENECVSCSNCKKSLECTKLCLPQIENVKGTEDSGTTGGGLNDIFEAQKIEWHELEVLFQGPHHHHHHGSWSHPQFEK
The experiment in a line: Human sTNFR1-peptide displacement assay (LanthaScreen Eu TR-FRET binding assay). In outline:
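Readout is the 665/615 nm TR-FRET ratio (Eu anti-His donor, streptavidin-Alexa647 acceptor), normalized to DMSO and saturating displacer, fit by Morrison-based five-parameter logistic for Kd^app. His-tagged sTNFR1 (1-211) prebound to 100 nM biotinylated peptide SEQ ID NO.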
On the technique in general: Time-resolved FRET reads energy transfer from a long-lived donor to a nearby acceptor.

Test [2] concerns the target T2, human TNFR1 extracellular domain (ECD) protein (Homo sapiens, UniProt P19438).
T2 construct: HRV 3C protease cleavage site (C); 6His (C, cleaved yes); made in house; host or cells: Sf21 insect cells (baculovirus), secreted
T2 sequence (P19438 30-211): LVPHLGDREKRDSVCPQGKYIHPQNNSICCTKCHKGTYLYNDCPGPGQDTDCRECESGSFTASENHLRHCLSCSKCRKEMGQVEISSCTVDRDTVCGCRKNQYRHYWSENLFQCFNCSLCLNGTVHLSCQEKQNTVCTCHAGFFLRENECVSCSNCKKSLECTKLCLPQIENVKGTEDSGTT
Nature of the test: SPR binding affinity to captured human TNFR1 ECD. In outline:
(§1)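 SPR kinetics: peptides over captured avi-biotinylated receptor ECDs, TNFR1 for affinity, TNFR2 run in parallel for off-target binding. Running buffer HEPES pH 7.4 with 150 mM NaCl, 3 mM EDTA, 0.05% P20, 2% DMSO; surface regenerated between analytes. Affinity derived from kon/koff.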
(SPR reads the build-up and loss of mass on a sensor chip optically.)

The next test addresses T3, human TNFR2 ECD protein (Homo sapiens, UniProt P20333).
T3 construct: HRV 3C protease cleavage site (C); 6His (C, cleaved yes); made in house; host or cells: Sf21 insect cells (baculovirus), secreted
T3 sequence (P20333 23-257): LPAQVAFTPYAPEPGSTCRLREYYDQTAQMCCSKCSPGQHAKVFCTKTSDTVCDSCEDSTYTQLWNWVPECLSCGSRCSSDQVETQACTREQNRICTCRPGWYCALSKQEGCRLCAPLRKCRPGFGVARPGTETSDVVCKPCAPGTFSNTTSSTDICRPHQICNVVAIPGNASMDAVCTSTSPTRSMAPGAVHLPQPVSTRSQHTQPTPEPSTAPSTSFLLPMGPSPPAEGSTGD
Nature of the test: SPR off-target binding (selectivity) to human TNFR2 ECD. The procedure, abridged: as §1

[3] abbreviates: displacement of biotinylated peptide SEQ ID NO. 1 from sTNFR1, 20 point titration, 5-parameter fit based on Morrison equation (tight binding), read-out: TR-FRET Kd^app.
[4] abbreviates: biotinylated human TNFR1 ECD on streptavidin chip, from kon and koff, read-out: SPR hTNFR1 KD.
Setting [5] is: biotinylated human TNFR2 ECD on streptavidin chip, read-out: SPR hTNFR2 KD.

Read-outs that look alike come from different tables or passages of the source. Numbered stars: 1 amine (or outer) side, 2 acyl side, 3 side chain; on linkers, the order of the positions; unused ones are H or OH. Square brackets hold non-standard residues; d marks the D form. Peptide text beside a SMILES is read from it. Trp(βS-Me,7-OMe) = COc1cccc2c([C@H](C)[C@H](N)C(=O)O)c[nH]c12; Phe(4-SO2NH2) = N[C@@H](Cc1ccc(S(N)(=O)=O)cc1)C(=O)O; Phe(2-F,4-COOH) = N[C@@H](Cc1ccc(C(=O)O)cc1F)C(=O)O; Trp(7-CN) = N#Cc1cccc2c(C[C@H](N)C(=O)O)c[nH]c12; Ala(pyrimidin-5-yl) = N[C@@H](Cc1cncnc1)C(=O)O; Phe(4-CONH2) = NC(=O)c1ccc(C[C@H](N)C(=O)O)cc1; Phe(4-COOH) = N[C@@H](Cc1ccc(C(=O)O)cc1)C(=O)O; 4Pal(3S-Me) = C[C@@H](c1ccncc1)[C@H](N)C(=O)O; Trp(7-aza) = N[C@@H](Cc1c[nH]c2ncccc12)C(=O)O; Phe(4-CH2NH2) = NCc1ccc(C[C@H](N)C(=O)O)cc1; Pip(5R-OH) = O=C(O)[C@@H]1CC[C@@H](O)CN1; X1 = O=C([C@@H]1CC[C@H](N[*:1])C1)[*:2]; Met(O2) = CS(=O)(=O)CC[C@H](N)C(=O)O; 4Pal = N[C@@H](Cc1ccncc1)C(=O)O; dHyp = O=C(O)[C@H]1C[C@H](O)CN1; Ahp(2) = CCCCC[C@H](N)C(=O)O; hSer = N[C@@H](CCO)C(=O)O; αMeS = C[C@](N)(CO)C(=O)O; Nle = CCCC[C@H](N)C(=O)O; Sar = CNCC(=O)O Some results are limits rather than exact numbers.

Regarding `CCCC[C@@H]1NC(=O)[C@@H]2CC[C@@H](C2)NC(=O)[C@H]([C@@H](C)c2c[nH]c3c(OC)cccc23)NC(=O)CN(C)C(=O)[C@H](Cc2ccc(CN)cc2)NC(=O)[C@H](Cc2ccc(C(N)=O)cc2)NC(=O)[C@](C)(CO)NC(=O)[C@H](Cc2c[nH]c3c(C#N)cccc23)NC(=O)[C@H](Cc2ccc(C(=O)O)cc2)NC(=O)[C@H](CC(N)=O)NC(=O)[C@H]2C[C@H](O)CN2C(=O)[C@H](Cc2c[nH]c3ccccc23)NC(=O)[C@@H]2CC[C@@H](O)CN2C(=O)[C@H](Cc2ccncc2)NC1=O` [SEQ ID NO. 48] (cyclo([4Pal][Pip(5R-OH)]W[dHyp]N[Phe(4-COOH)][Trp(7-CN)][αMeS][Phe(4-CONH2)][Phe(4-CH2NH2)][Sar][Trp(βS-Me,7-OMe)][X1][Nle])), the results for the Kd (in test [1] (setting [3]); in test [2] (setting [4]); on human TNFR2 ECD protein (setting [5])) were 0.15 nM, 0.03 nM and above 1000 nM, respectively.
Take `CCCCC[C@@H]1NC(=O)[C@@H]2CC[C@@H](C2)NC(=O)[C@H]([C@@H](C)c2c[nH]c3c(OC)cccc23)NC(=O)CN(C)C(=O)[C@H](Cc2ccc(C(N)=O)cc2)NC(=O)[C@H](Cc2ccc(C(N)=O)cc2)NC(=O)[C@](C)(CO)NC(=O)[C@H](Cc2c[nH]c3c(C#N)cccc23)NC(=O)[C@H](Cc2ccc(C(=O)O)cc2)NC(=O)[C@H](CC(N)=O)NC(=O)[C@H]2C[C@H](O)CN2C(=O)[C@H](Cc2c[nH]c3ccccc23)NC(=O)[C@H](CCS(C)(=O)=O)NC(=O)[C@H]([C@@H](C)c2ccncc2)NC1=O` [SEQ ID NO. 49] (cyclo([Ahp(2)][4Pal(3S-Me)][Met(O2)]W[dHyp]N[Phe(4-COOH)][Trp(7-CN)][αMeS][Phe(4-CONH2)][Phe(4-CONH2)][Sar][Trp(βS-Me,7-OMe)][X1])): the Kd is 0.2 nM in test [1], 0.08 nM in test [2] and above 1000 nM at human TNFR2 ECD protein.
Take `CCCCC[C@@H]1NC(=O)[C@@H]2CC[C@@H](C2)NC(=O)[C@H]([C@@H](C)c2c[nH]c3c(OC)cccc23)NC(=O)CN(C)C(=O)[C@H](Cc2ccc(C(N)=O)cc2)NC(=O)[C@H](Cc2ccc(C(N)=O)cc2)NC(=O)[C@](C)(CO)NC(=O)[C@H](Cc2c[nH]c3c(C#N)cccc23)NC(=O)[C@H](Cc2ccc(C(=O)O)cc2)NC(=O)[C@H](CC(N)=O)NC(=O)[C@H]2C[C@H](O)CN2C(=O)[C@H](Cc2c[nH]c3ccccc23)NC(=O)[C@H](CCO)NC(=O)[C@H]([C@@H](C)c2ccncc2)NC1=O` [SEQ ID NO. 50] (cyclo([Ahp(2)][4Pal(3S-Me)][hSer]W[dHyp]N[Phe(4-COOH)][Trp(7-CN)][αMeS][Phe(4-CONH2)][Phe(4-CONH2)][Sar][Trp(βS-Me,7-OMe)][X1])): the values for the Kd (in test [1]; in test [2]; on human TNFR2 ECD protein) were 0.2 nM, 0.04 nM and above 1000 nM, respectively.
In the case of `CCCC[C@@H]1NC(=O)[C@@H]2CC[C@@H](C2)NC(=O)[C@H]([C@@H](C)c2c[nH]c3c(OC)cccc23)NC(=O)CN(C)C(=O)[C@H](Cc2ccc(C(=O)O)cc2F)NC(=O)[C@H](Cc2ccc(S(N)(=O)=O)cc2)NC(=O)[C@](C)(CO)NC(=O)[C@H](Cc2c[nH]c3c(C#N)cccc23)NC(=O)[C@H](Cc2ccc(C(=O)O)cc2F)NC(=O)[C@H](CC(N)=O)NC(=O)[C@H]2C[C@H](O)CN2C(=O)[C@H](Cc2c[nH]c3ncccc23)NC(=O)[C@@H]2CC[C@@H](O)CN2C(=O)[C@H](Cc2cncnc2)NC1=O` [SEQ ID NO. 51] (cyclo(N[Phe(2-F,4-COOH)][Trp(7-CN)][αMeS][Phe(4-SO2NH2)][Phe(2-F,4-COOH)][Sar][Trp(βS-Me,7-OMe)][X1][Nle][Ala(pyrimidin-5-yl)][Pip(5R-OH)][Trp(7-aza)][dHyp])), the Kd in test [1] (setting [3]) is 0.05 nM; in test [2] (setting [4]), 0.08 nM; on human TNFR2 ECD protein (setting [5]), above 1000 nM.

The values are drawn from US20240287138A1, “CYCLIC PEPTIDES FOR INHIBITING TNF RECEPTOR 1 ACTIVITY” (Merck Sharp & Dohme LLC, priority 2023, published 2024).
